Tests used:
Assay in all cases: relative viability (nuclei count vs DMSO), 5 days (fraction); higher = more cells survive
Venetoclax + Alpelisib = compound: CC1(C)CCC(CN2CCN(c3ccc(C(=O)NS(=O)(=O)c4ccc(NCC5CCOCC5)c([N+](=O)[O-])c4)c(Oc4cnc5[nH]ccc5c4)c3)CC2)=C(c2ccc(Cl)cc2)C1 [Venetoclax] + Cc1nc(NC(=O)N2CCC[C@H]2C(N)=O)sc1-c1ccnc(C(C)(C)C(F)(F)F)c1 [Alpelisib] (partner 2 µM)
How it was run: (§1)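 Lung cancer cell lines in 1536-well plates got either a single drug or a fixed anchor-drug dose together with five library-drug doses (not always all listed) in √10 steps, by pin tool, on the day after seeding. Nuclei were counted after 5 days, and relative viability is the treated-to-vehicle ratio of nuclei counts. Values are medians of duplicate plates.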

Venetoclax + Olaparib = compound: CC1(C)CCC(CN2CCN(c3ccc(C(=O)NS(=O)(=O)c4ccc(NCC5CCOCC5)c([N+](=O)[O-])c4)c(Oc4cnc5[nH]ccc5c4)c3)CC2)=C(c2ccc(Cl)cc2)C1 [Venetoclax] + O=C(c1cc(Cc2n[nH]c(=O)c3ccccc23)ccc1F)N1CCN(C(=O)C2CC2)CC1 [Olaparib] (partner 8 µM)
How it was run: as §1

Selumetinib + Bortezomib = compound: Cn1cnc2c(F)c(Nc3ccc(Br)cc3Cl)c(C(=O)NOCCO)cc21 [Selumetinib] + CC(C)C[C@H](NC(=O)[C@H](Cc1ccccc1)NC(=O)c1cnccn1)B(O)O [Bortezomib] (partner 0.002 µM)
How it was run: as §1

Selumetinib + Linsitinib = compound: Cn1cnc2c(F)c(Nc3ccc(Br)cc3Cl)c(C(=O)NOCCO)cc21 [Selumetinib] + C[C@]1(O)C[C@@H](c2nc(-c3ccc4ccc(-c5ccccc5)nc4c3)c3c(N)nccn32)C1 [Linsitinib] (partner 1 µM)
How it was run: as §1

Cell Line	relative viability (Venetoclax + Alpelisib; first compound 0.01 µM)	relative viability (Venetoclax + Alpelisib; first compound 0.03162 µM)	relative viability (Venetoclax + Alpelisib; first compound 0.1 µM)	relative viability (Venetoclax + Alpelisib; first compound 0.3162 µM)	relative viability (Venetoclax + Alpelisib; first compound 1 µM)	relative viability (Venetoclax + Olaparib; first compound 0.01 µM)	relative viability (Venetoclax + Olaparib; first compound 0.03162 µM)	relative viability (Venetoclax + Olaparib; first compound 0.1 µM)	relative viability (Venetoclax + Olaparib; first compound 0.3162 µM)	relative viability (Venetoclax + Olaparib; first compound 1 µM)	relative viability (Selumetinib + Bortezomib; first compound 0.02 µM)	relative viability (Selumetinib + Bortezomib; first compound 0.06325 µM)	relative viability (Selumetinib + Bortezomib; first compound 0.2 µM)	relative viability (Selumetinib + Bortezomib; first compound 0.6325 µM)	relative viability (Selumetinib + Linsitinib; first compound 0.02 µM)	relative viability (Selumetinib + Linsitinib; first compound 0.06325 µM)	relative viability (Selumetinib + Linsitinib; first compound 0.2 µM)	relative viability (Selumetinib + Linsitinib; first compound 0.6325 µM)
HCC-78	0.371	0.303	0.313	0.326	0.361	0.718	0.78	0.879	0.871	0.686	0.468	0.359	0.392	0.425	0.446	0.402	0.419	0.378
HOP-62	0.924	1.21	1.08	1.07	0.9	0.318	0.622	0.359	0.203	0.394	1.06	0.779	0.496	0.475	0.98	1.05	0.93	0.469
NCI-H3122	0.874	0.751	0.757	0.731	0.884	0.644	0.671	0.637	0.667	0.603	0.896	0.811	0.779	0.78	0.933	0.817	0.766	0.728
RERF-LC-KJ	0.769	0.871	0.736	0.91	0.779	0.883	0.839	0.934	0.935	0.847	1.05	1.01	0.92	0.944	0.828	0.949	0.862	0.796
NCI-H1703	0.361	0.436	0.349	0.385	0.303	0.35	0.328	0.333	0.44	0.476	0.309	0.255	0.403	0.434	0.75	0.637	0.67	0.824
HCC-15	0.872	0.91	0.723	0.857	0.735	0.607	0.754	0.75	0.68	0.668	0.842	0.677	0.559	0.424	0.674	0.502	0.351	0.232
NCI-H1666	0.8	0.89	1.13	0.971	1.04	0.77	0.741	0.711	0.759	0.62	0.595	0.586	0.63	0.495	0.643	0.614	0.606	0.54
NCI-H1395	0.989	0.943	0.926	0.983	0.961	0.451	0.484	0.447	0.473	0.427					1.05	0.939	0.973	1.08
LCLC-97TM1		0.317	0.248	0.241	0.249	0.242	0.297	0.37	0.323	0.365	0.522	0.379	0.294	0.157	0.227	0.193	0.207	0.2
NCI-H1299	1.02	1.03	1.06	1.04	1.03	0.975	0.991	1.01	0.927	0.943	1.08	1.09	1.07	0.977	0.996	0.833	0.88	0.677
NCI-H1563	1.03	0.938	0.852	0.987	1.03						0.804	0.68	0.726	0.786	1.15	1.2	1.11	1.11
HCC-827	0.954	0.977	1	0.976	0.994	0.647	0.703	0.642	0.603	0.655	1.22	1.03	1.02	0.975	0.848	0.929	0.931	0.894
NCI-H1651	0.973	0.949	0.959	0.987	0.905	0.157	0.204	0.171	0.171	0.188	1.08	0.861	0.873	0.818	0.973	0.962	0.815	0.902
HCC-366	0.5	0.425	0.448	0.501	0.317	0.4	0.374	0.372	0.353	0.311	1.07	0.935	0.864	0.761	0.525	0.406	0.249	0.229
EKVX	0.82	1	0.871	0.982	0.786	0.93	0.908	0.817	0.855	0.819	0.858	0.795	0.543	0.748	0.864	0.912	0.749	0.711
NCI-H2228	0.696	0.842	0.698	0.628	0.757	0.519	0.832	0.519	0.776	0.692	0.923	0.989	0.75	0.584	0.605	0.628	0.671	0.359
LK-2	0.993	1.28	1.12	1.19	1.06	0.934	0.98	0.848	0.619	0.716					0.466	0.551	0.587	0.312
NCI-H1650						0.763	0.733	0.994	0.592	0.745	0.199	0.172	0.215	0.222				

Cell Line	relative viability (Venetoclax + Alpelisib; first compound 0.01 µM)	relative viability (Venetoclax + Alpelisib; first compound 0.03162 µM)	relative viability (Venetoclax + Alpelisib; first compound 0.1 µM)	relative viability (Venetoclax + Alpelisib; first compound 0.3162 µM)	relative viability (Venetoclax + Alpelisib; first compound 1 µM)	relative viability (Venetoclax + Olaparib; first compound 0.01 µM)	relative viability (Venetoclax + Olaparib; first compound 0.03162 µM)	relative viability (Venetoclax + Olaparib; first compound 0.1 µM)	relative viability (Venetoclax + Olaparib; first compound 0.3162 µM)	relative viability (Venetoclax + Olaparib; first compound 1 µM)	relative viability (Selumetinib + Bortezomib; first compound 0.02 µM)	relative viability (Selumetinib + Bortezomib; first compound 0.06325 µM)	relative viability (Selumetinib + Bortezomib; first compound 0.2 µM)	relative viability (Selumetinib + Bortezomib; first compound 0.6325 µM)	relative viability (Selumetinib + Linsitinib; first compound 0.02 µM)	relative viability (Selumetinib + Linsitinib; first compound 0.06325 µM)	relative viability (Selumetinib + Linsitinib; first compound 0.2 µM)	relative viability (Selumetinib + Linsitinib; first compound 0.6325 µM)
COR-L23	0.7	0.753	0.745	0.766	0.741	0.331	0.473	0.313	0.382	0.314	1.27	0.939	1.06	0.968	0.945	0.88	0.864	0.787
ABC-1	0.933	0.996	0.853	0.967	1.01	0.711	0.721	0.87	0.641	0.686	0.279	0.258	0.275	0.291	0.794	0.678	0.607	0.614
SW 900						0.76	0.866	0.841	0.845	0.819								
PC-3 [JPC-3]	0.917	1.03	1.01	0.967	1.01	1.15	1.19	1.21	1.15	1.04	0.822	0.813	0.669	0.551	0.95	0.876	0.92	0.727
NCI-H1648							0.766	0.698	0.841	0.713								
A549	0.755	0.706	0.868	0.85	0.716	0.302	0.376	0.311	0.35	0.339					0.489	0.436	0.363	0.349
A-427	1.02	1.09	1.13	1.07	1.17	0.709	0.709	0.821	0.657	0.778	1.06	0.978	1.05	0.959	1.16	1.09	1.02	0.925
NCI-H1975	0.673	0.703	0.609	0.628	0.543	0.754	0.821	0.74	0.811	0.674	0.324	0.282	0.262	0.221	1	0.886	0.892	0.623
LU99A	0.432	0.545	0.548	0.522	0.505	0.301	0.287	0.255	0.283	0.254	1.35	1.05	1.18	1.37	0.49	0.567	0.511	0.566
ChaGo-K-1						0.341	0.48	0.437	0.5	0.439	0.959	0.993	0.942	1.05				
NCI-H358	0.769	0.828	0.786	0.903	0.839	0.567	0.651	0.575	0.773	0.579					0.472	0.512	0.424	0.365
NCI-H1944	1.12	0.836	0.779	0.864	0.845	0.627	0.394	0.392	0.418	0.406					0.979	0.928	0.762	0.687
NCI-H2342						0.462	0.554	0.543	0.401	0.475								
NCI-H522						0.561	0.611	0.612	0.621	0.688								
SK-MES-1	0.857	0.898	0.887	0.788	0.831	0.732	0.918	0.66	0.737	0.664					1.03	1.03	0.814	0.775
NCI-H2170	0.769	0.739	0.75	0.825	0.788	0.57	0.639	0.573	0.615	0.591								
NCI-H1793	0.8	0.737	0.595	0.711	0.613	0.867	0.892	0.883	0.806	0.712					0.883	0.817	0.419	0.392
